Experimental data as given in PubChem BioAssay AID220 (DTP/NCI, 2004).
Where “and” joins values, the source holds several entries; their conditions need not be identical. Equal entries are not always repeated. Results filed as inconclusive are left out.

Tested on: CD8F1 mice, subcutaneous mammary adenocarcinoma, T/C%
Experiment: NCI In Vivo Anticancer Drug Screen. Data for tumor model Mammary Adenocarcinoma CD8F1 (subcutaneous) in CD8F1
Settings: higher = larger tumour
Method in brief: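 Antitumor activity is assessed in transplantable-tumor mice by comparing the treated group with a vehicle-treated control group. Survival or tumor size serves as the measure, reported as T divided by C.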

[1] = endpoint: median tumor weight (est.), dose: 12.5 mg/kg/injection, schedule: Q07DX005 (ip), vehicle: Klucel (hydroxypropylcellulose) (HPC)
[2] = endpoint: median tumor weight (est.), dose: 25.0 mg/kg/injection, schedule: Q07DX005 (ip), vehicle: Klucel (hydroxypropylcellulose) (HPC)
[3] = endpoint: median tumor weight (est.), dose: 50.0 mg/kg/injection, schedule: Q07DX005 (ip), vehicle: Klucel (hydroxypropylcellulose) (HPC)
[4] = endpoint: median tumor weight (est.), dose: 200.0 mg/kg/injection, schedule: Q07DX005 (ip), vehicle: Klucel (hydroxypropylcellulose) (HPC)
[5] = endpoint: median tumor weight (est.), dose: 400.0 mg/kg/injection, schedule: Q07DX005 (ip), vehicle: Klucel (hydroxypropylcellulose) (HPC)
[6] = endpoint: median tumor weight (est.), dose: 100.0 mg/kg/injection, schedule: Q07DX005 (ip), vehicle: Klucel (hydroxypropylcellulose) (HPC)
[7] = endpoint: median tumor weight change, dose: 62.5 mg/kg/injection, schedule: Q01DX001 (ip), vehicle: saline with Tween-80
[8] = endpoint: median tumor weight change, dose: 250.0 mg/kg/injection, schedule: Q01DX001 (ip), vehicle: saline with Tween-80

With C[Si](C)(C)O/C=C1/CCOC1=O the T/C (endpoint: median tumor weight change, dose: 125.0 mg/kg/injection, schedule: Q01DX001 (ip), vehicle: saline) was 96 % of control, the T/C (endpoint: median tumor weight change, dose: 500.0 mg/kg/injection, schedule: Q01DX001 (ip), vehicle: saline) was 82 % of control and the T/C (endpoint: median tumor weight change, dose: 1000.0 mg/kg/injection, schedule: Q01DX001 (ip), vehicle: saline) was 72 % of control.
With Nc1ncn(C2CC(O)C(CO)O2)c(=O)n1 (centres undefined) the T/C (endpoint: median tumor weight (est.), dose: 0.37 mg/kg/injection, schedule: Q07DX005 (ip), vehicle: saline) was 37 % of control, the T/C (endpoint: median tumor weight (est.), dose: 0.75 mg/kg/injection, schedule: Q07DX005 (ip), vehicle: saline) was 25 % of control and the T/C (endpoint: median tumor weight (est.), dose: 1.5 mg/kg/injection, schedule: Q07DX005 (ip), vehicle: saline) was 9 % of control. For the same compound, the T/C (endpoint: median tumor weight (est.), dose: 3.0 mg/kg/injection, schedule: Q07DX005 (ip), vehicle: saline) was 10 % of control.
With Cc1cc(C)c(-c2cc(O)c(C)cc2O)c(C)c1 the T/C [1] was 56 % of control, the T/C [2] was 150 % of control and 267 % of control and the T/C [3] was 81 % of control. The T/C [4] was 71 % of control and the T/C [5] was 28 % of control.
For C(=N/NC1=NCCN1)/c1c2ccccc2c(/C=N\NC2=NCCN2)c2ccccc12, the T/C (endpoint: median tumor weight change, dose: 25.0 mg/kg/injection, schedule: Q01DX001 (ip), vehicle: saline) was 78 % of control, the T/C (endpoint: median tumor weight change, dose: 50.0 mg/kg/injection, schedule: Q01DX001 (ip), vehicle: saline) was 101 % of control and the T/C (endpoint: median tumor weight change, dose: 100.0 mg/kg/injection, schedule: Q01DX001 (ip), vehicle: saline) was 37 % of control.
With Clc1ccc(C(c2ccccc2Cl)C(Cl)Cl)cc1 (centres undefined) the T/C [1] was 124 % of control, the T/C [2] was 118 % of control and the T/C [3] was 175 % of control. For the same compound, the T/C [6] was 92 % of control.
For CC[N](CC)[Ge]([CH2]C)[CH2]C.CC[N](CC)[Ge]([CH2]C)[CH2]C, the T/C (endpoint: median tumor weight (est.), dose: 6.25 mg/kg/injection, schedule: Q07DX005 (ip), vehicle: saline) was 116 % of control, the T/C (endpoint: median tumor weight (est.), dose: 12.5 mg/kg/injection, schedule: Q07DX005 (ip), vehicle: saline) was 74 % of control and the T/C (endpoint: median tumor weight (est.), dose: 25.0 mg/kg/injection, schedule: Q07DX005 (ip), vehicle: saline) was 124 % of control. For the same compound, the T/C (endpoint: median tumor weight (est.), dose: 50.0 mg/kg/injection, schedule: Q07DX005 (ip), vehicle: saline) was 94 % of control.
In the case of COc1cc(NCCCCCCCNC(C)C)c2nccc(C)c2c1, the T/C (endpoint: median tumor weight change, dose: 31.25 mg/kg/injection, schedule: Q01DX001 (ip), vehicle: saline) was 70 % of control and the T/C (endpoint: median tumor weight change, dose: 62.5 mg/kg/injection, schedule: Q01DX001 (ip), vehicle: saline) was 72 % of control.
In the case of COC1=C(OC)C(=O)C(SC/C=C(\C)CCCC(C)CCCC(C)CCCC(C)C)=CC1=O (centres undefined), the T/C (endpoint: median tumor weight (est.), dose: 12.5 mg/kg/injection, schedule: Q07DX005 (ip), vehicle: saline with Tween-80) was 164 % of control, the T/C (endpoint: median tumor weight (est.), dose: 25.0 mg/kg/injection, schedule: Q07DX005 (ip), vehicle: saline with Tween-80) was 110 % of control and the T/C (endpoint: median tumor weight (est.), dose: 50.0 mg/kg/injection, schedule: Q07DX005 (ip), vehicle: saline with Tween-80) was 32 % of control. The T/C (endpoint: median tumor weight (est.), dose: 100.0 mg/kg/injection, schedule: Q07DX005 (ip), vehicle: saline with Tween-80) was 68 % of control, the T/C (endpoint: median tumor weight (est.), dose: 200.0 mg/kg/injection, schedule: Q07DX005 (ip), vehicle: saline with Tween-80) was 85 % of control and the T/C (endpoint: median tumor weight (est.), dose: 400.0 mg/kg/injection, schedule: Q07DX005 (ip), vehicle: saline with Tween-80) was 52 % of control.
For Nc1ccc(C(OC(=O)c2cc3ccccc3c(Cc3c(O)c(C(=O)OC(c4ccc(N)cc4)(c4ccc(N)cc4)c4ccc(N)cc4)cc4ccccc34)c2O)(c2ccc(N)cc2)c2ccc(N)cc2)cc1, the T/C (endpoint: median tumor weight change, dose: 6.25 mg/kg/injection, schedule: Q01DX001 (ip), vehicle: saline with Tween-80) was 73 % of control, the T/C (endpoint: median tumor weight change, dose: 50.0 mg/kg/injection, schedule: Q01DX001 (ip), vehicle: saline with Tween-80) was 97 % of control and the T/C [7] was 61 % of control.
For Cc1cc2cc3cc(C)c(N)cc3nc2cc1N, the T/C (endpoint: median tumor weight change, dose: 31.25 mg/kg/injection, schedule: Q01DX001 (ip), vehicle: saline with Tween-80) was 59 % of control, the T/C [7] was 72 % of control and the T/C (endpoint: median tumor weight change, dose: 125.0 mg/kg/injection, schedule: Q01DX001 (ip), vehicle: saline with Tween-80) was 42 % of control. For the same compound, the T/C [8] was 36 % of control.
For CC1=C[S+](c2ccccc2)c2cccc3cc4ccccc4c1c23 (centres undefined), the T/C (endpoint: median tumor weight change, dose: 0.62 mg/kg/injection, schedule: Q01DX001 (ip), vehicle: saline with Tween-80) was 103 % of control, the T/C (endpoint: median tumor weight change, dose: 5.0 mg/kg/injection, schedule: Q01DX001 (ip), vehicle: saline with Tween-80) was 98 % of control and the T/C (endpoint: median tumor weight change, dose: 10.0 mg/kg/injection, schedule: Q01DX001 (ip), vehicle: saline with Tween-80) was 40 % of control and 59 % of control.
For O=C1CC2(C(=O)N1CN1CCCCC1)c1ccccc1-c1ccccc12, the T/C [1] was 99 % of control, the T/C [2] was 71 % of control and the T/C [6] was 85 % of control. For the same compound, the T/C [4] was 62 % of control and the T/C [5] was 21 % of control.
With CC(=O)Nc1cscc1NC(C)=O the T/C [8] was 73 % of control and 85 % of control, the T/C (endpoint: median tumor weight change, dose: 500.0 mg/kg/injection, schedule: Q01DX001 (ip), vehicle: saline with Tween-80) was 71 % of control and 73 % of control and the T/C (endpoint: median tumor weight change, dose: 1000.0 mg/kg/injection, schedule: Q01DX001 (ip), vehicle: saline with Tween-80) was 74 % of control and 91 % of control.
